Biological target: α7 nAChR subtype (Rattus norvegicus, UniProt Q05941)
Type: binding

Chain of α7 nAChR subtype (Q05941 23-502 limits assumed): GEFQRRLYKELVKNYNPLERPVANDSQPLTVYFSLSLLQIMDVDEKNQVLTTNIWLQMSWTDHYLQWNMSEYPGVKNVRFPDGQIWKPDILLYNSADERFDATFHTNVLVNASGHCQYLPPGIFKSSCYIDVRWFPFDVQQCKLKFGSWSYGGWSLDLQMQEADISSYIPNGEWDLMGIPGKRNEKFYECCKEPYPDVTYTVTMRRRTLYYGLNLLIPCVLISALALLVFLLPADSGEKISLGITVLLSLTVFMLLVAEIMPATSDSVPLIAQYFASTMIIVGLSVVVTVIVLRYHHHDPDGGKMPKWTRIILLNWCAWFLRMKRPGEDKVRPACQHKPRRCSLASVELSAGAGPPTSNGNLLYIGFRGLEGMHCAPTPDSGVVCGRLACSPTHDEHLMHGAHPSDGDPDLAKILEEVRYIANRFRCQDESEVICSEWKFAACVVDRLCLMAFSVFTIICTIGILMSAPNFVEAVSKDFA

[^125 I]-α-Bungarotoxin [[^125 I]-α-BTX]
Kd: 1.67 nM
